In brackets after ≈: the same amount, converted by molar mass. Square brackets hold non-standard residues; d marks the D form. Peptide text beside a SMILES is read from it. Ac6c = NC1(C(=O)O)CCCCC1
Columns and labels:
[1] = assay type: in vitro ADME, CD-1 mice
Method: Female CD-1 mice of 8 weeks were retroorbitally bled and 6 μg A3-APO peptide dissolved in 10 μL phosphate buffered saline (PBS) was immediately added to approximately 100 μL retrieved blood. After 30 min incubation at 37° C., the cells were removed by 10 min centrifugation at 2,000 rpm, 50 μL PBS was added to 50 μL of the plasma, followed by addition of 45 μL of 15% TCA. The rest of the analysis was done as described for the serum stability studies. Control blood was treated identically without A3-APO peptide addition. […] While the double charged ion at 2519 M/z from the serum studies could not be detected, the two serum components at 1798 and 2969 M/z and two new peaks at 2321 and 2577 M/z were present. These latter peptide species correspond to stable early degradation products.
Ex vivo blood stability studies were repeated on Chex1-Arg20 according to the protocol described above “Stability of Peptide A3-APO in Whole Blood”. […] The only degradation product that could be detected, at about one third of the peak height of the Chex1-Arg20 starting material, was at 2321 M/z, representing a fragment with the C-terminal arginine missing. Apparently this cleavage product is the Chex1-Val19 fragment observed for peptide A3-APO when the stability studies were done in blood ex vivo (see and compare with the lower panel of FIG. 2 and Table 1). […]

[2] = system: A. baumannii ATCC BBA-1605
Description: (§1) To investigate the activity of the A3-APO metabolites, Chex1-Arg20 single chain unit and an Arg7-Arg20 common cleavage fragment were synthesized and studied for their ability to kill Enterobacteriaceae strains in undiluted Muller-Hinton broth, a true measure of potential clinical viability (Otvos et al., 2005. J. Med. Chem. 48: 5349-5359). The peptides of the invention were made on a CEM Liberty automated synthesizer with standard Fmoc-chemistry. The peptides were detached from the resin with the carboxyl terminus of the C-terminal Arg residue being in the form of an amino amide, —C(O)—NH2 (“Chex1-Arg20-NH2” and “Arg7-Arg20-NH2”), while still in the microwave chamber, and were purified by RP-HPLC. […] The biological studies carried out on chemically synthesized peptides in this example and succeeding examples were carried out on the C-terminal modified versions of the peptides wherein the C-terminal carboxylic acid function was in the form of an amide, —C(O)—NH2. Antibacterial growth inhibition assays were performed using sterile 96-well polypropylene plates (Nunc F96 microtiter plates) in a final volume of 100 μL as described previously (Cudic et al., 2002. Peptides 23: 271-283). The cell concentrations were estimated by measuring the ultraviolet absorbance at 600 nm and applying the formula cfu/mL=A600(3.8×10^8), where cfu is the number of colony-forming units. Briefly, 50 μL of a suspension of midlogarithmic phase bacterial cultures diluted to 5×10^5 cfu/mL in Muller-Hinton broth (MHB) was added to 50 μL of serially diluted peptides also dissolved in MHB. The final peptide concentration was 128 μg/mL. Cultures were then incubated at 37° C., 5% CO2 for 16-20 h without shaking, and growth inhibition was measured by recording the absorbance at 600 nm using a microplate reader. […] The minimal inhibitory concentration indicates the lowest peptide dose where no visible bacterial growth is detected after 16 hours incubation in full strength Muller-Hinton broth at 37° C. The peptide Chex-pyrr-Dap dimer was also included in the study. […] (Cudic et al., 2002. Peptides 23: 271-283).
(§2) Following the protocol of Example 2, minimal inhibitory concentrations of the Chex1-Arg20 peptide against selected bacteria was determined. […] A3-APO was included for comparison.

E. coli 045-849 = system: E. coli 045-849
Description: as §1, §2

E. coli 5770 = system: E. coli 5770
Description: as §1, §2

E. coli HK131 = system: E. coli HK131
Description: as §1, §2

E. coli SEQ102 = system: E. coli SEQ102
Description: as §1, §2

E. coli SOTE40 = system: E. coli SOTE40
Description: as §1, §2

K. pneumoniae 012-3132 = system: K. pneumoniae 012-3132
Description: as §1, §2

K. pneumoniae HK 123 = system: K. pneumoniae HK 123
Description: as §1, §2

K. pneumoniae HK 127 = system: K. pneumoniae HK 127
Description: as §1, §2

K. pneumoniae HK 186 = system: K. pneumoniae HK 186
Description: as §1, §2

K. pneumoniae K6 = system: K. pneumoniae K6
Description: as §1, §2

P. aeruginosa 10 = system: P. aeruginosa 10
Description: as §1, §2

P. aeruginosa ATCC 39329 = system: P. aeruginosa ATCC 39329
Description: as §1, §2

[3] = system: S. saprophyticus ATCC 15305
Description: as §1, §2

[4] = system: S. typhimurium ATCC 14028
Description: as §1, §2

S. typhimurium G10215 = system: S. typhimurium G10215
Description: as §1, §2

S. typhimurium S5 = system: S. typhimurium S5
Description: as §1, §2

Escherichia coli 5770 = experiment: Mouse survival after last dose, systemic infection model without cisplatin pretreatment; assay type: in vivo
Method: The survival rate and the dynamics of survival of mice after the last dose of an antibacterial peptide treatment (12 hours post-infection) were measured in a mouse model of Escherichia coli 5770 systemic infection. In this particular study, the animals were not pretreated with cisplatin. Ten animals were used in each group. […] In the control (infected, non-treated) and the imipenem treated rows, the first numbers reflect the number of surviving animals on the day of assay measuring the efficacy of the Chex1-Arg20 and the second numbers are the surviving control animals on the day of the A3-APO efficacy assay.

CC(C)C[C@H](NC(=O)[C@H](Cc1ccc(O)cc1)NC(=O)[C@@H]1CCCN1C(=O)[C@H](CCCNC(=N)N)NC(=O)[C@@H]1CCCN1C(=O)[C@H](CCCCN)NC(=O)[C@H](CC(=O)O)NC(=O)[C@@H]1CCCN1C(=O)[C@H](CCCNC(=N)N)NC(=O)C1(N)CCCCC1)C(=O)N1CCC[C@H]1C(=O)N[C@@H](CCCNC(=N)N)C(=O)N1CCC[C@H]1C(=O)N[C@@H](CCCNC(=N)N)C(=O)N1CCC[C@H]1C(=O)N1CCC[C@H]1C(=O)N[C@@H](CCCNC(=N)N)C(=O)N1CCC[C@H]1C(=O)N[C@H](C(=O)N[C@@H](CCCNC(=N)N)C(=O)O)C(C)C [Chex1-Arg20, Chex-Arg-Pro-Asp-Lys-Pro-Arg-Pro-Tyr-Leu-Pro-Arg-Pro-Arg--Pro-Pro-Arg-Pro-Val-Arg] (H-[Ac6c]RPDKPRPYLPRPRPPRPVR-OH; N-terminus and C-terminus assumed)
peak height of the only degradation product (2321 M/z) relative to starting material [1]: about one third | MIC, A. baumannii ATCC BBA-1605 [2]: 16 µg/mL (≈ 6.46 µM) | MIC, E. coli 045-849 (E. coli 045-849): 2 µg/mL (≈ 0.808 µM) | MIC, E. coli 5770 (E. coli 5770): 0.5 µg/mL (≈ 0.202 µM) | MIC, E. coli HK131 (E. coli HK131): 1 µg/mL (≈ 0.404 µM) | MIC, E. coli SEQ102 (E. coli SEQ102): 1 µg/mL (≈ 0.404 µM) | MIC, E. coli SOTE40 (E. coli SOTE40): 2 µg/mL (≈ 0.808 µM) | MIC, K. pneumoniae 012-3132 (K. pneumoniae 012-3132): 0.25 µg/mL (≈ 0.101 µM) | MIC, K. pneumoniae HK 123 (K. pneumoniae HK 123): 2 µg/mL (≈ 0.808 µM) | MIC, K. pneumoniae HK 127 (K. pneumoniae HK 127): 0.25 µg/mL (≈ 0.101 µM) | MIC, K. pneumoniae HK 186 (K. pneumoniae HK 186): 0.25 µg/mL (≈ 0.101 µM) | MIC, K. pneumoniae K6 (K. pneumoniae K6): 2 µg/mL (≈ 0.808 µM) | MIC, P. aeruginosa 10 (P. aeruginosa 10): 32 µg/mL (≈ 12.9 µM) | MIC, P. aeruginosa ATCC 39329 (P. aeruginosa ATCC 39329): 32 µg/mL (≈ 12.9 µM) | MIC, S. saprophyticus ATCC 15305 [3]: 4 µg/mL (≈ 1.62 µM) | MIC, S. typhimurium ATCC 14028 [4]: 1 µg/mL (≈ 0.404 µM) | MIC, S. typhimurium G10215 (S. typhimurium G10215): 0.25 µg/mL (≈ 0.101 µM) | MIC, S. typhimurium S5 (S. typhimurium S5): 0.5 µg/mL (≈ 0.202 µM) | number of surviving mice (10 animals each) (Escherichia coli 5770; 2.5 mg/kg, 0 h after last dose): 10 | number of surviving mice (10 animals each) (Escherichia coli 5770; 2.5 mg/kg, 3 h after last dose): 7/7 | number of surviving mice (10 animals each) (Escherichia coli 5770; 2.5 mg/kg, 6 h after last dose): 7 | number of surviving mice (10 animals each) (Escherichia coli 5770; 2.5 mg/kg, 9 h after last dose): 5 | number of surviving mice (10 animals each) (Escherichia coli 5770; 2.5 mg/kg, 12 h after last dose): 4 | number of surviving mice (10 animals each) (Escherichia coli 5770; 5 mg/kg, 0 h after last dose): 9 | number of surviving mice (10 animals each) (Escherichia coli 5770; 5 mg/kg, 3 h after last dose): 9 | number of surviving mice (10 animals each) (Escherichia coli 5770; 5 mg/kg, 6 h after last dose): 8 | number of surviving mice (10 animals each) (Escherichia coli 5770; 5 mg/kg, 9 h after last dose): 6 | number of surviving mice (10 animals each) (Escherichia coli 5770; 5 mg/kg, 12 h after last dose): 5 | number of surviving mice (10 animals each) (Escherichia coli 5770; 10 mg/kg, 0 h after last dose): 10 | number of surviving mice (10 animals each) (Escherichia coli 5770; 10 mg/kg, 3 h after last dose): 10 | number of surviving mice (10 animals each) (Escherichia coli 5770; 10 mg/kg, 6 h after last dose): 10 | number of surviving mice (10 animals each) (Escherichia coli 5770; 10 mg/kg, 9 h after last dose): 9 | number of surviving mice (10 animals each) (Escherichia coli 5770; 10 mg/kg, 12 h after last dose): 5

Reference: patent US8492515B2 (priority 2008, dated 2013)
